Measurements published in US20130310407A1, “COMBINATIONS COMPRISING MACITENTAN FOR THE TREATMENT OF GLIOBLASTOMA MULTIFORME” (ACTELION PHARMACEUTICALS LTD., priority 2011, published 2013).

Assays:
[1] = system: LN229 human glioblastoma cells; test: LN229 human glioblastoma cells stereotactically injected into nude mice brain: treatment with macitentan and paclitaxel (Example 2); format: in vivo; settings: nude mice with intracerebral LN229, paclitaxel 8.5 mg/kg intraperitoneal weekly, macitentan 10 mg/kg oral daily
Protocol: (§1) Forty-eight (48) female Swiss Nude mice were obtained from Charles River (France). […] Animal experiments were performed according to the European ethical guidelines of animal experimentation.

[2] = system: phosphorylated AKT and MAPK; test: Immunohistochemistry of tumors using antibodies against phosphorylated AKT and MAPK; format: in vivo, mice; settings: tumors of treated animals, Examples 1 and 2 (macitentan) and Example 3 (atrasentan, zibotentan)
From the text: Suppression of survival and proliferation pathways sensitizes cells to chemotherapy and could be the reason for the high effectiveness of macitentan in combination with chemotherapy.

[3] = system: LN229 human glioblastoma cells; test: LN229 human glioblastoma cells stereotactically injected into nude mice brain: treatment with macitentan and temozolomide (Example 1); format: in vivo; settings: nude mice with intracerebral LN229; treatment from two weeks after injection; temozolomide 7.5 mg/kg oral daily one week on/two weeks off; macitentan 10 mg/kg oral daily; day 100
Protocol: as §1
The mice were monitored daily and euthanized when they developed neurologic symptoms or became moribund. Days of survival were recorded and brain tissues were harvested and processed for histologic examinations. The experiment was terminated on day 100.

SMILES: CC(=O)O[C@H]1C(=O)[C@@]2(C)[C@H]([C@H](OC(=O)c3ccccc3)[C@]3(O)C[C@H](OC(=O)[C@H](O)[C@@H](NC(=O)c4ccccc4)c4ccccc4)C(C)=C1C3(C)C)[C@]1(OC(C)=O)CO[C@@H]1C[C@@H]2O [PTL, paclitaxel]
- survival after 70 days [1]: about 60%

SMILES: COc1nc(C)cnc1NS(=O)(=O)c1cccnc1-c1ccc(-c2nnco2)cc1 [Zibotentan, zibotentan]
- reduction of phosphorylated AKT and MAPK in tumors (immunohistochemistry) [2]: much less prominent

SMILES: CCCNS(=O)(=O)Nc1ncnc(OCCOc2ncc(Br)cn2)c1-c1ccc(Br)cc1 [macitentan]
- survival rate after 100 days [3]: about 40%
- survival after 70 days [1]: about 60%
- reduction of phosphorylated AKT and MAPK in tumors (immunohistochemistry) [2]: strong reduction of both proteins

SMILES: Cn1nnc2c(C(N)=O)ncn2c1=O [TMZ, temozolomide]
- survival rate after 100 days [3]: about 40%

SMILES: CCCCN(CCCC)C(=O)CN1C[C@H](c2ccc3c(c2)OCO3)[C@@H](C(=O)O)[C@@H]1c1ccc(OC)cc1 [Atrasentan, atrasentan]
- reduction of phosphorylated AKT and MAPK in tumors (immunohistochemistry) [2]: much less prominent
